Experimental data: patent US9339508B2, “Use of 3-methoxy-pregnenolone for the preparation of a drug for treating a traumatic brain injury” (MAPREG, priority 2003, dated 2016)

Assays:
[1] = tested on: transgenic mice expressing the longest isoform of human tau protein; experiment: RotaRod motor incoordination in transgenic tau mice; assay type: in vivo, mouse; settings: subcutaneous implant releasing 0.38 mg per day for 90 days
Source text: FIG. 8: Effect of molecule 43B on the motor incoordination of transgenic mice expressing the longest isoform of human tau protein in their neurons. […] The maximum speed of rotation of the RotaRod drum before the […] falls is a measurement of motor coordination (higher values correspond to a better treatment effect).
In order to evaluate the therapeutic potential of 433 to treat Alzheimer-type neurodegenerative diseases, a homozygous transgenic line of mice, such as described by Götz (EMBO J. 1995; 14(7):1304-13), can be used.
These mice express the longest human tau protein isoform. They present symptoms of neurological dysfunction expressed as muscular weakness and a reduction in motor coordination which correlate histologically with the appearance of abnormal neurites and hyperphosphorylated tau proteins as is seen in Alzheimer's disease. This pathological phosphorylation decreases the affinity of tau for microtubules and favors its aggregation.
A breeding program was undertaken at Bicêtre and genotyping made it possible to select mice homozygous for the transgene. […] The implants released 0.38 mg of steroid per day for 90 days. The progression of motor incoordination was followed by repeated RotaRod tests.

PC12 cells = experiment: Neuritic growth / sprouting of PC12 cells in the presence of NGF; assay type: cell-based, rat; settings: increasing concentrations, 2, 5 and 8 days of culture, NGF 10 ng/ml
Procedure: Each molecule was tested in three culture wells. Measurements were taken for 200 cells per well using Scion Image software.
Neurite (neurite) length was measured for 200 cells per well after 2, 5, and 8 days of culture.
To rest the effect of selected molecules on neuritic growth, we first used the PC12 line, which has long been employed in neurobiological research. In the presence of NOF (nerve growth factor), the cells of this line, which arise from a rat pheochromocytoma, form neuritic extensions containing MAP-associated microtubules.
Stimulation of neuritic sprouting is conducted on PC12 cells differentiated in the presence of NGF (10 ng/ml) and the steroid being tested (30 μM) for 3 days. For each condition, the average length of the longest 200 neurites in each cell is measured simultaneously for 3 cultures.

[2] = tested on: rats subjected to spinal cord compression; experiment: Spinal cord compression model, BBB score; assay type: in vivo, rat; settings: 12 mg/kg/day subcutaneous for 2 weeks; as of post-operation day 7
Procedure: FIG. 7: Effect of molecule 43B on locomotor recovery following spinal cord compression in rats. Animal locomotion was evaluated in a blind format during the 1-28 day post-operative period using the BBB score which evaluates the degree of paralysis (higher values correspond to better recovery). Statistical significance: * indicates p<0.001; ** indicates p<0.0001.
To determine the neuroprotective effects of the molecules tested, a spinal cord compression model is used. This model involves the total paralysis of the animals in the first few days following the operation. This period of paralysis is followed of a phase of approximately three weeks during which the animals partially recover their motor function. The study of this recovery using a simple and precise functional test based on observation of the animals (the BBB score) makes it possible to study the speed and the degree of recovery of the animals, with and without treatment.
Two groups of rats were subjected to spinal cord compression. Then, daily for 2 weeks, the animals received a subcutaneous injection containing either sesame oil alone (control group, n=20), or sesame oil containing molecule 43B (43B group, n=20; 12 mg/kg/day). The first injection was given 5 minutes after spinal cord compression. Locomotion of the animals, using BBB scores, was evaluated in a blind format on post-operation days 1, 4, 7, 14, 21, and 28. […]

[3] = target: purified tubulin and MAP2 (Homo sapiens, UniProt P11137); experiment: MAP2-induced polymerization of microtubules in vitro (optical density at 345 nm); assay type: biochemical
Sequence of purified tubulin and MAP2 (P11137 whole entry): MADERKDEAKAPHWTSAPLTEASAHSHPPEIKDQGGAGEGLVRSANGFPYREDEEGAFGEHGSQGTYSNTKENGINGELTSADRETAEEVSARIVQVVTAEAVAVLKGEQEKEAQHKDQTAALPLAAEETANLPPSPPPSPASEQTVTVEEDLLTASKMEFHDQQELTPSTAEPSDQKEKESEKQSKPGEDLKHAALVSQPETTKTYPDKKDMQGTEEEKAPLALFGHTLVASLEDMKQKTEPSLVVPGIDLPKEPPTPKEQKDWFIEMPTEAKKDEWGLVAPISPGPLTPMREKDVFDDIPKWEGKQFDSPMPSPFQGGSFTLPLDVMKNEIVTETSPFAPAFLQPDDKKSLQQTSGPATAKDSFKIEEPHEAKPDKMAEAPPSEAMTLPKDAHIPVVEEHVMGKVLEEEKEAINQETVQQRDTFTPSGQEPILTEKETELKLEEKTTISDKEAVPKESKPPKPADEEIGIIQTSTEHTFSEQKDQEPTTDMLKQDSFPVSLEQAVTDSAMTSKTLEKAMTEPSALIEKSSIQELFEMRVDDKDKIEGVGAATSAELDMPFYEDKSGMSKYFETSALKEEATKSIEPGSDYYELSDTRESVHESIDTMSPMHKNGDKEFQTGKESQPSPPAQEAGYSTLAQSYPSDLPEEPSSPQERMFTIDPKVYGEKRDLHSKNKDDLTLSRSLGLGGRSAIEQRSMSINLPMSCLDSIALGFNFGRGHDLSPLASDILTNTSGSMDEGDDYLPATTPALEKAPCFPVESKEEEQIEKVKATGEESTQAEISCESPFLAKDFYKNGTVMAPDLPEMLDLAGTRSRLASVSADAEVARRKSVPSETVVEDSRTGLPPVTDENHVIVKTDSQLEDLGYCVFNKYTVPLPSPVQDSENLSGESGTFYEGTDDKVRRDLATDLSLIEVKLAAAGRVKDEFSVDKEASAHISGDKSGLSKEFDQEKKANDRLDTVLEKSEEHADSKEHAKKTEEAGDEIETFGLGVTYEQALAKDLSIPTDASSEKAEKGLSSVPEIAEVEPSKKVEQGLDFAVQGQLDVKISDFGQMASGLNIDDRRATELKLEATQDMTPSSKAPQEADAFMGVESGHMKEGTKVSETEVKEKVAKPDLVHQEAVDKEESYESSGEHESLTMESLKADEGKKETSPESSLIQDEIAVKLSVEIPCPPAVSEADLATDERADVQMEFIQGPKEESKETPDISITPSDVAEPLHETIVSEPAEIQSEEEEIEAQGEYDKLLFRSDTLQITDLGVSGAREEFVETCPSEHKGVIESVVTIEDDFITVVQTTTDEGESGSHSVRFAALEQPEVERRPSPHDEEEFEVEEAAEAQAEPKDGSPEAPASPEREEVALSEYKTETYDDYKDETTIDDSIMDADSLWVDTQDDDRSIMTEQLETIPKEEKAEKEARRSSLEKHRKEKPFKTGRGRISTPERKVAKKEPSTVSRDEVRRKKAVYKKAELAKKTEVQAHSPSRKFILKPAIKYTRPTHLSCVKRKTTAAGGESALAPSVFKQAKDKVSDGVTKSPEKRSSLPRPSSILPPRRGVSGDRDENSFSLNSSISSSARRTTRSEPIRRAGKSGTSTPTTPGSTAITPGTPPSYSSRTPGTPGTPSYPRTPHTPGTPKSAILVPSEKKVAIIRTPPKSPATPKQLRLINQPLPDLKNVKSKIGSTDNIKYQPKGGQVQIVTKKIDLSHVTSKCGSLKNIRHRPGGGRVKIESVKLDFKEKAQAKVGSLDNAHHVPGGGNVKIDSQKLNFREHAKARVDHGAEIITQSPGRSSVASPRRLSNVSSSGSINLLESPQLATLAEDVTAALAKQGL
Procedure: Purified MAP2 and tubulin are mixed in the presence of GTP at 4° C. in a spectrophotometer cuvette. Polymerization is induced by heating at 37° C. and is followed by the increase in optical density (OD) which indicates the quantity of polymers formed.
This in vitro test measures the effect of molecules on the MAP2-induced polymerization of microtubules. This polymerization occurs when MAP2 proteins and tubulin are mixed at adequate concentrations in the presence of GTP. It is accompanied by an increase in optical density measured at 345 nm for 15 to 30 minutes with a UNICON spectrophotometer thermostated at 37° C. (FIG. 1).
Activity is measured by the increase in optical density at 345 nm of a mixture of purified tubulin and MAP2, incubated at 37° C. in the presence of GTP.

[4] = tested on: 80 different CNS neurotransmitters receptors; experiment: In vitro affinity screen on CNS receptors; assay type: binding; settings: 10 μM; significant: inhibition higher than 50%
Source text: MAP4343 has been screened for in vitro affinity to 80 different CNS neurotransmitters receptors using various validated binding assays.

[5] = In vivo toxicity, daily injection for one month; design: species or system rat; settings: rats, 48 mg/kg daily injection for one month
PC12 cell line = experiment: Cellular toxicity on the PC12 cell line; assay type: cell-based, rat; settings: concentrations as high as solubility limits
Procedure: Cellular toxicity tests are carried out routinely on the PC12 cell line.

GAP43 = experiment: Western blot of GAP43 in cortex and hippocampus after CCI; assay type: in vivo, rat; settings: day 35, injured cortex (20 mg/kg only), hippocampus and non-injured cortex (both doses)
Procedure: CCI was performed with an electromagnetic impact device as described (MyNeurolab, St. Louis, Mo.; Brody et al, 2007). Anesthesized rats were subjected to a single right lateral CCI, with the following parameters impact centered 4.0 mm anterior to lambda and 4.5 mm […] of midline, within the craniotomy of the animal. The impact was set at a velocity of 4 m/s with a sustained depression of 200 ms, using a 5.0 mm tip.
Samples were analyzed by Western-blot at day 35 post-trauma (D35) to evaluate the effects of MAP4343 on: MAP2 (the target of MAP4343 and a modulator of microtubule function), the post-synaptic markers PSD95 and spinophilin, the pre-synaptic marker synaptophysin, and the axonal growth/integrity marker […].
Western blot was performed on cortex and hippocampus of TBI-injured animals receiving the first injection of MAP4343 (at 10 mg/kg or 20 mg/kg) or vehicle (sesame oil) 2 h after injury.
The expression level of various neuronal brain markers of plasticity was measured at day 35 post-trauma by western-blots in the cortex and hippocampus of left uninjured and right injured cerebral hemispheres of CCI traumatized animals receiving either vehicle (sesame oil, CCI-D0) or 3-methoxy-PREG (MAP4343) at 10 mg/kg (CCI-D1) or 20 mg/kg (CCI-D2), with first MAP4343 injection 2 h post-trauma.

[6] = Pharmacokinetics by GC/MS, brain and spinal cord; assay type: in vivo, rat; settings: 12 mg/kg subcutaneous in sesame oil; 1, 4, 8, 24 hours
Procedure: FIG. 9: Kinetics of the appearance of 3-methoxy-PREG (43B) in rat brain and spinal cord following subcutaneous injection of 43B (12 mg/kg) in a sesame oil solution.
The pharmacokinetics of the molecules tested in vivo are evaluated using gas chromatography/mass spectrometry (GC/MS) assays.

[7] = 40 μM, compared to solvent alone

## CO[C@H]1CC[C@@]2(C)C(=CC[C@H]3[C@@H]4CC[C@H](C(C)=O)[C@@]4(C)CC[C@@H]32)C1 [3-methoxy-PREG, 3β-methoxy-pregna-5-ene-20-one]
[1]
  motor dysfunction (RotaRod): beneficial effect on motor dysfunction
PC12 cells
  increase in the length of neurites: ≤ 500%
[2]
  locomotion, BBB score: quite significantly higher than the control animals
[3]
  microtubule polymerization: activates microtubule polymerization
[3]; [7]
  Lag time of microtubule polymerization: decreased
  polymerization rate and quantity of microtubules: clearly increase
[4]
  affinity for tested CNS receptors: no significant affinity for any tested receptor
[5]
  average weight and behavior: affected neither average weight nor behavior
PC12 cell line
  cellular toxicity: do not demonstrate toxicity
GAP43
  GAP-43 expression: increased GAP-43 expression
[6]
  penetration into spinal cord and brain: penetrates rapidly into the spinal cord and the brain
